In patent US6890706B2, “Process for removing stain in a photographic material” (Ciba Specialty Chemicals Corporation, priority 1999, dated 2005):

Assay: Solubility in 0.2M K2CO3 solution (pH of a developer solution)
Format: physicochemical
Details: room temperature

| Solubility of the active substance in K2CO3 0.2M solution | SMILES |
| --- | --- |
| 6.6% | O=S(=O)([O-])c1ccc(Nc2nc(Nc3ccc(/C=C/c4ccc(Nc5nc(Nc6ccc(S(=O)(=O)[O-])cc6S(=O)(=O)[O-])nc(N6CCOCC6)n5)cc4S(=O)(=O)[O-])c(S(=O)(=O)[O-])c3)nc(N3CCOCC3)n2)c(S(=O)(=O)[O-])c1.[Na+].[Na+].[Na+].[Na+].[Na+].[Na+] [Comp-3, reference compound] |
| 38.5% | O=C([O-])CN(CC(=O)[O-])c1nc(Nc2ccccc2)nc(Nc2ccc(/C=C/c3ccc(Nc4nc(Nc5ccccc5)nc(N(CC(=O)[O-])CC(=O)[O-])n4)cc3S(=O)(=O)[O-])c(S(=O)(=O)[O-])c2)n1.[Na+].[Na+].[Na+].[Na+].[Na+].[Na+] [E] |
| 32.0% | O=C(O)CN(CC(=O)O)c1nc(Nc2ccc(/C=C/c3ccc(Nc4nc(Nc5cc(S(=O)(=O)O)ccc5S(=O)(=O)O)nc(N(CC(=O)O)CC(=O)O)n4)cc3S(=O)(=O)O)c(S(=O)(=O)O)c2)nc(Nc2cc(S(=O)(=O)O)ccc2S(=O)(=O)O)n1.[Na+].[Na+].[Na+].[Na+].[Na+].[Na+].[Na+].[Na+].[Na+].[Na+] [G] |
| 32.0% | CN(CC(=O)[O-])c1nc(Nc2ccc(/C=C/c3ccc(Nc4nc(Nc5cc(S(=O)(=O)[O-])ccc5S(=O)(=O)[O-])nc(N(C)CC(=O)[O-])n4)cc3S(=O)(=O)[O-])c(S(=O)(=O)[O-])c2)nc(Nc2cc(S(=O)(=O)[O-])ccc2S(=O)(=O)[O-])n1.[Na+].[Na+].[Na+].[Na+].[Na+].[Na+].[Na+].[Na+] [H] |

The next lines start with the compound.

| SMILES | Solubility of the active substance in K2CO3 0.2M solution |
| --- | --- |
| O=C([O-])CC(Nc1nc(Nc2ccccc2)nc(Nc2ccc(/C=C/c3ccc(Nc4nc(Nc5ccccc5)nc(NC(CC(=O)[O-])C(=O)[O-])n4)cc3S(=O)(=O)[O-])c(S(=O)(=O)[O-])c2)n1)C(=O)[O-].[Na+].[Na+].[Na+].[Na+].[Na+].[Na+] (stereo not shown) [B] | 25.6% |
| O=C([O-])CC(Nc1nc(Nc2ccc(/C=C/c3ccc(Nc4nc(Nc5cc(S(=O)(=O)[O-])ccc5S(=O)(=O)[O-])nc(NC(CC(=O)[O-])C(=O)[O-])n4)cc3S(=O)(=O)[O-])c(S(=O)(=O)[O-])c2)nc(Nc2cc(S(=O)(=O)[O-])ccc2S(=O)(=O)[O-])n1)C(=O)[O-].[Na+].[Na+].[Na+].[Na+].[Na+].[Na+].[Na+].[Na+].[Na+].[Na+] (stereo not shown) [C] | 39.0% |
| COc1nc(NCCS(=O)(=O)[O-])nc(Nc2ccc(/C=C/c3ccc(Nc4nc(OC)nc(N(CCO)CCO)n4)cc3S(=O)(=O)[O-])c(S(=O)(=O)[O-])c2)n1.[Na+].[Na+].[Na+] [Comp-1, reference compound] | 3.4% |
